Laboratory results published in PMC8699473, “An Easily Expandable Multi-Drug LC-MS Assay for the Simultaneous Quantification of 57 Oral Antitumor Drugs in Human Plasma” (Cancers, 2021).
Where two headings read alike, the source gives them in different places.

How the values were obtained:
[1] = Reference trough level (cmin) at steady state; assay type: in vivo, human; conditions: minimum steady-state plasma concentration, calculated based on cmax; ref supplement [7], [2,5,24], [51]
[2] = Freeze-thaw stability in spiked pooled human plasma; assay type: physicochemical
[3] = Autosampler stability of ready for injection samples; assay type: physicochemical, human
[4] = Long-term stability in spiked pooled human plasma
[5] = Short-term stability in spiked pooled human plasma (bench-top, 4 °C, 56 °C)
[6] = human
[7] = human; remark: listed apart in the source
[8] = parameters: method as in supplement references [1-55] as printed per drug; conditions: minimum steady-state blood plasma concentration after multiple dose administration; ref supplement references [1-55] per drug; cited from earlier work

O=C1CN2Cc3c(ccc(Cl)c3Cl)N=C2N1 [Anagrelide]
cmin [1]: 1.5 ng/mL
Freeze-Thaw Accuracy [%] ([2]; validation standard 2xLLOV): 96.5%
Freeze-Thaw Accuracy [%] ([2]; validation standard LLOV): 92.8%
Freeze-Thaw Accuracy [%] ([2]; validation standard MOV): 93.8%
Freeze-Thaw Accuracy [%] ([2]; validation standard ULOV): 99.6%
Autosampler (24h, 4°C) Accuracy [%] ([3]; validation standard 2xLLOV): 113.2%
Autosampler (72h, 4°C) Accuracy [%] ([3]; validation standard 2xLLOV): 106.1%
Autosampler (24h, 4°C) Accuracy [%] ([3]; validation standard LLOV): 111.7%
Autosampler (72h, 4°C) Accuracy [%] ([3]; validation standard LLOV): 110.5%
Autosampler (24h, 4°C) Accuracy [%] ([3]; validation standard MOV): 104.6%
Autosampler (72h, 4°C) Accuracy [%] ([3]; validation standard MOV): 96.8%
Autosampler (24h, 4°C) Accuracy [%] ([3]; validation standard ULOV): 101.8%
Autosampler (72h, 4°C) Accuracy [%] ([3]; validation standard ULOV): 98.2%
Long-term stability, 1 month, -20°C Accuracy [%] ([4]; validation standard 2xLLOV): 99.8%
Long-term stability, 1 month, -80°C Accuracy [%] ([4]; validation standard 2xLLOV): 105.6%
Long-term stability, 2 month, -20°C Accuracy [%] ([4]; validation standard 2xLLOV): 121.4%
Long-term stability, 2 month, -80°C Accuracy [%] ([4]; validation standard 2xLLOV): 118.5%
Long-term stability, 3 month, -20°C Accuracy [%] ([4]; validation standard 2xLLOV): 110.2%
Long-term stability, 3 month, -80°C Accuracy [%] ([4]; validation standard 2xLLOV): 114.9%
Long-term stability, 6 weeks, 4°C, without daylight Accuracy [%] ([4]; validation standard 2xLLOV): 74.6%
Long-term stability, 1 month, -20°C Accuracy [%] ([4]; validation standard LLOV): 103.9%
Long-term stability, 1 month, -80°C Accuracy [%] ([4]; validation standard LLOV): 121.5%
Long-term stability, 2 month, -20°C Accuracy [%] ([4]; validation standard LLOV): 128.7%
Long-term stability, 2 month, -80°C Accuracy [%] ([4]; validation standard LLOV): 141.5%
Long-term stability, 3 month, -20°C Accuracy [%] ([4]; validation standard LLOV): 101.8%
Long-term stability, 3 month, -80°C Accuracy [%] ([4]; validation standard LLOV): 118.8%
Long-term stability, 6 weeks, 4°C, without daylight Accuracy [%] ([4]; validation standard LLOV): 33.5%
Long-term stability, 1 month, -20°C Accuracy [%] ([4]; validation standard MOV): 95.0%
Long-term stability, 1 month, -80°C Accuracy [%] ([4]; validation standard MOV): 97.0%
Long-term stability, 2 month, -20°C Accuracy [%] ([4]; validation standard MOV): 101.3%
Long-term stability, 2 month, -80°C Accuracy [%] ([4]; validation standard MOV): 98.7%
Long-term stability, 3 month, -20°C Accuracy [%] ([4]; validation standard MOV): 95.7%
Long-term stability, 3 month, -80°C Accuracy [%] ([4]; validation standard MOV): 95.1%
Long-term stability, 6 weeks, 4°C, without daylight Accuracy [%] ([4]; validation standard MOV): 103.7%
Long-term stability, 1 month, -20°C Accuracy [%] ([4]; validation standard ULOV): 95.4%
Long-term stability, 1 month, -80°C Accuracy [%] ([4]; validation standard ULOV): 90.8%
Long-term stability, 2 month, -20°C Accuracy [%] ([4]; validation standard ULOV): 94.5%
Long-term stability, 2 month, -80°C Accuracy [%] ([4]; validation standard ULOV): 99.2%
Long-term stability, 3 month, -20°C Accuracy [%] ([4]; validation standard ULOV): 94.9%
Long-term stability, 3 month, -80°C Accuracy [%] ([4]; validation standard ULOV): 94.7%
Long-term stability, 6 weeks, 4°C, without daylight Accuracy [%] ([4]; validation standard ULOV): 97.1%
Short-time stability (1h, 56°C) Accuracy [%] ([5]; validation standard 2xLLOV): 66.3%
Short-time stability (24h, 4°C, without daylight) Accuracy [%] ([5]; validation standard 2xLLOV): 104.2%
Short-time stability (24h, RT, with daylight) Accuracy [%] ([5]; validation standard 2xLLOV): 84.8%
Short-time stability (24h, RT, without daylight) Accuracy [%] ([5]; validation standard 2xLLOV): 84.4%
Short-time stability (1h, 56°C) Accuracy [%] ([5]; validation standard LLOV): 55.6%
Short-time stability (24h, 4°C, without daylight) Accuracy [%] ([5]; validation standard LLOV): 90.4%
Short-time stability (24h, RT, with daylight) Accuracy [%] ([5]; validation standard LLOV): 78.3%
Short-time stability (24h, RT, without daylight) Accuracy [%] ([5]; validation standard LLOV): 67.4%
Short-time stability (1h, 56°C) Accuracy [%] ([5]; validation standard MOV): 52.9%
Short-time stability (24h, 4°C, without daylight) Accuracy [%] ([5]; validation standard MOV): 96.9%
Short-time stability (24h, RT, with daylight) Accuracy [%] ([5]; validation standard MOV): 96.0%
Short-time stability (24h, RT, without daylight) Accuracy [%] ([5]; validation standard MOV): 88.7%
Short-time stability (1h, 56°C) Accuracy [%] ([5]; validation standard ULOV): 46.2%
Short-time stability (24h, 4°C, without daylight) Accuracy [%] ([5]; validation standard ULOV): 93.5%
Short-time stability (24h, RT, with daylight) Accuracy [%] ([5]; validation standard ULOV): 98.5%
Short-time stability (24h, RT, without daylight) Accuracy [%] ([5]; validation standard ULOV): 94.1%

Cc1ccc(C(=O)Nc2ccc(CN3CCN(C)CC3)c(C(F)(F)F)c2)cc1C#Cc1cnc2cccnn12 [Ponatinib]
Freeze-Thaw Accuracy [%] [2]: 101.5%
Freeze-Thaw Accuracy [%] ([2]; validation standard 2xLLOV): 101.8%
Freeze-Thaw Accuracy [%] ([2]; validation standard MOV): 99.3%
Freeze-Thaw Accuracy [%] ([2]; validation standard ULOV): 100.2%
Autosampler (24h, 4°C) Accuracy [%] [3]: 104.7%
Autosampler (72h, 4°C) Accuracy [%] [3]: 104.7%
Autosampler (24h, 4°C) Accuracy [%] ([3]; validation standard 2xLLOV): 106.1%
Autosampler (72h, 4°C) Accuracy [%] ([3]; validation standard 2xLLOV): 106.1%
Autosampler (24h, 4°C) Accuracy [%] ([3]; validation standard MOV): 106.1%
Autosampler (72h, 4°C) Accuracy [%] ([3]; validation standard MOV): 102.3%
Autosampler (24h, 4°C) Accuracy [%] ([3]; validation standard ULOV): 101.9%
Autosampler (72h, 4°C) Accuracy [%] ([3]; validation standard ULOV): 102.0%
Short-time stability (1h, 56°C) Accuracy [%] [6]: 30.7%
Short-time stability (24h, 4°C, without daylight) Accuracy [%] [6]: 95.7%
Short-time stability (24h, RT, with daylight) Accuracy [%] [6]: 89.6%
Short-time stability (24h, RT, without daylight) Accuracy [%] [6]: 91.7%
Long-term stability, 1 month, -20°C Accuracy [%] ([7]; both): 96.0%
Long-term stability, 1 month, -80°C Accuracy [%] ([7]; both): 92.6%
Long-term stability, 2 month, -20°C Accuracy [%] ([7]; both): 87.7%
Long-term stability, 2 month, -80°C Accuracy [%] ([7]; both): 99.1%
Long-term stability, 3 month, -20°C Accuracy [%] ([7]; both): 91.3%
Long-term stability, 3 month, -80°C Accuracy [%] ([7]; both): 96.8%
Long-term stability, 6 weeks, 4°C, without daylight Accuracy [%] [7]: 83.5%
cmin [8]: 34 ng/mL
Long-term stability, 1 month, -20°C Accuracy [%] ([4]; validation standard 2xLLOV): 99.2%
Long-term stability, 1 month, -80°C Accuracy [%] ([4]; validation standard 2xLLOV): 94.7%
Long-term stability, 2 month, -20°C Accuracy [%] ([4]; validation standard 2xLLOV): 95.8%
Long-term stability, 2 month, -80°C Accuracy [%] ([4]; validation standard 2xLLOV): 97.8%
Long-term stability, 3 month, -20°C Accuracy [%] ([4]; validation standard 2xLLOV): 93.4%
Long-term stability, 3 month, -80°C Accuracy [%] ([4]; validation standard 2xLLOV): 98.9%
Long-term stability, 6 weeks, 4°C, without daylight Accuracy [%] ([4]; validation standard 2xLLOV): 91.7%
Long-term stability, 1 month, -20°C Accuracy [%] ([4]; validation standard MOV): 92.3%
Long-term stability, 1 month, -80°C Accuracy [%] ([4]; validation standard MOV): 93.7%
Long-term stability, 2 month, -20°C Accuracy [%] ([4]; validation standard MOV): 99.2%
Long-term stability, 2 month, -80°C Accuracy [%] ([4]; validation standard MOV): 101.1%
Long-term stability, 3 month, -20°C Accuracy [%] ([4]; validation standard MOV): 95.0%
Long-term stability, 3 month, -80°C Accuracy [%] ([4]; validation standard MOV): 95.3%
Long-term stability, 6 weeks, 4°C, without daylight Accuracy [%] ([4]; validation standard MOV): 97.9%
Long-term stability, 1 month, -20°C Accuracy [%] ([4]; validation standard ULOV): 95.0%
Long-term stability, 1 month, -80°C Accuracy [%] ([4]; validation standard ULOV): 90.8%
Long-term stability, 2 month, -20°C Accuracy [%] ([4]; validation standard ULOV): 97.0%
Long-term stability, 2 month, -80°C Accuracy [%] ([4]; validation standard ULOV): 100.1%
Long-term stability, 3 month, -20°C Accuracy [%] ([4]; validation standard ULOV): 93.8%
Long-term stability, 3 month, -80°C Accuracy [%] ([4]; validation standard ULOV): 93.5%
Long-term stability, 6 weeks, 4°C, without daylight Accuracy [%] ([4]; validation standard ULOV): 89.4%
Short-time stability (1h, 56°C) Accuracy [%] ([5]; validation standard 2xLLOV): 48.3%
Short-time stability (24h, 4°C, without daylight) Accuracy [%] ([5]; validation standard 2xLLOV): 96.6%
Short-time stability (24h, RT, with daylight) Accuracy [%] ([5]; validation standard 2xLLOV): 98.7%
Short-time stability (24h, RT, without daylight) Accuracy [%] ([5]; validation standard 2xLLOV): 98.1%
Short-time stability (1h, 56°C) Accuracy [%] ([5]; validation standard MOV): 50.8%
Short-time stability (24h, 4°C, without daylight) Accuracy [%] ([5]; validation standard MOV): 100.1%
Short-time stability (24h, RT, with daylight) Accuracy [%] ([5]; validation standard MOV): 99.8%
Short-time stability (24h, RT, without daylight) Accuracy [%] ([5]; validation standard MOV): 102.6%
Short-time stability (1h, 56°C) Accuracy [%] ([5]; validation standard ULOV): 43.1%
Short-time stability (24h, 4°C, without daylight) Accuracy [%] ([5]; validation standard ULOV): 93.3%
Short-time stability (24h, RT, with daylight) Accuracy [%] ([5]; validation standard ULOV): 97.8%
Short-time stability (24h, RT, without daylight) Accuracy [%] ([5]; validation standard ULOV): 98.9%
